This note sets out measurements from patent EP0445023A1, “Vehicle for a therapeutically active agent for external use and antiseptic preparation comprising said vehicle” (INNOTHERA, priority 1990, dated 1991).

A short description of the data set: ex vivo transcutaneous passage. The data set is classed as in vitro ADME. The settings on record: peau épilée ou rasée de rats, applied as the antiseptic preparation.

Turning to `O=C(Nc1ccc(Cl)cc1)Nc1ccc(Cl)c(Cl)c1` [principe actif, trichloro-3,4,4′ carbanilide], the “passage transcutané du principe actif” value is listed as “n'ont pas permis de déceler un passage transcutané”.
